Laboratory results published in PubChem BioAssay AID1963449 (Molecular Pharmacology Branch, DTP, NCI, 2024).
“And” between values parts separate entries of the source, which are not always exact repeats. Equal entries are not always repeated.

Test system: 596521-263-R-J1-PDC complex spheroid growth
Assay: Anticancer human tumor 596521-263-R-J1-PDC patient-derived soft tissue sarcoma cell line growth inhibition [Asc]
Details: for viability, T/C: stronger effect = lower value
Method: Multicellular complex tumor spheroid response to apoptosis pathway targeting inhibitors Alrizomadlin, Pelcitoclax, and Dasminapant in combination with a variety of drugs and investigational agents in selected tumor cell lines
The MDM2 inhibitor alrizomadlin, the Bcl-2/Bcl-xL inhibitor pelcitoclax, and the IAPs inhibitor dasminapant were evaluated both individually and in combination with standard of care and investigational anticancer small molecules within a complex spheroid model of solid tumors. . Complex spheroids include a stromal component modeled by human endothelial cells (HUVEC) and fibroblasts modeled by human mesenchymal stem cells (MSCs). The concentration ranges selected for each drug and investigational agent were based upon clinically achievable concentrations if the clinical Cmax of the agent was known.
Compounds. The drugs and investigational agents: alrizomadlin (APG-115; NSC831270), pelcitoclax (APG-1252; NSC835773), dasminapant (APG-1387;NSC834197), TAK-243 (NSC785004), copanlisib (NSC809693), olaparib (NSC753686), talazoparib (NSC767125), cobimetinib (NSC 768068), eltanexor (KPT-8602, NSC 794443), abemaciclib (NSC 768073), sotorasib (NSC818433), adagrasib (NSC 831453), MRTX-1133 (NSC 836407), Iadademestat (ORY1001, NSC 806812), and RMC-4630 (NSC839698), were obtained from the NCI Developmental Therapeutics Program Chemical Repository. The FDA-approved anticancer drug set is available from the Developmental Therapeutics Program at https://dtp.cancer.gov/organization/dscb/obtaining/available plates.htm. […] The stock solutions were prepared in dimethyl sulfoxide (DMSO, Sigma-Aldrich, St. Louis, MO, cat. D2650) at 800-fold the tested concentration and stored at -70 degrees C prior to their use. All drugs and investigational agents were tested over a range starting from a high concentration at or near the clinical Cmax and decreasing in half-log increments. If the clinical Cmax for an agent had not been determined, the highest concentration tested was 10 microM.
The patient-derived cancer (PDC) cell lines include five colon adenocarcinomas: 186277-243-T-J2-PDC, 616215-338-R-J1-PDC, 439559-082-T-J2-PDC, 463943-066-T-J2-PDC, and 519858-162-T-J1-PDC; three pancreatic carcinomas: 323965-272-R-J2-PDC, 521955-158-R6-J3-PDC, and 521955-158-R2-J5-PDC; two uterine sarcomas: 327498-152-R-J2-PDC and 993429-296-R-J1-PDC; two rhabdomyosarcomas: 755483-174-R-J1-PDC and 772245-204-R-J1-PDC; two soft tissue sarcomas: 126254-015-R-J1-PDC and 494315-158-R-J1-PDC; two malignant fibrous histiocytomas: 317291-083-R-J1-PDC and 596521-263-R-J1-PDC; two breast carcinomas: 171881-019-R-J1-PDC and 885512-296-R-J2-PDC; and one ovarian carcinoma: 6556581-035-R-J-PDC were obtained from the NCI PDMR, (https://pdmr.cancer.gov). The established cell lines HSSY-2 synovial sarcoma (RRID:CVCL 8719), SYO-1 synovial sarcoma (RRID:CVCL_7146), MPNST malignant peripheral neural sheath tumor were obtained from the Sloan Kettering Institute. The following established cell lines were purchased from the American Type Culture Collection (ATCC, Manassas, VA), Sor the received from the NCI repository:, PANC-1 pancreatic carcinoma (CRL-1469, RRID:CVCL_0480), OVCAR-5 ovarian carcinoma (RRID:CVCL_1628), OVCAR-8 ovarian carcinoma (RRID:CVCL_1629), , MCF-7 breast carcinoma (CRL-12584, RRID:CVCL_0031), MDA-MB-231 breast carcinoma (CRL-12532, RRID:CVCL_0062), NCI-H1876 small cell lung carcinoma (CRL-5902, RRID:CVCL_1503), NCI-H510A small cell lung carcinoma (HTB-184, RRID:CVCL_1565), NCI-H1417 (CRL-5869, RRID:CVCL_1469), and NCI-H196 small cell lung carcinoma (CRL-5823, RRID:CVCL_1509). Dr. Peter Houghton (Greehey Children's Cancer Research Institute, University of Texas Health Science Center, San Antonio, TX) provided Rh-18 rhabdomyosarcoma (RRID:CVCL_1659). Pooled donor human umbilical vein endothelial cells (HUVEC, Lonza, cat. CC-2519) and human mesenchymal stem cells (hMSC, Lonza, cat. PT-2501) were purchased from Lonza (Walkersville, MD).
Cell Culture. […]

[1] = compound alone, run of 11/07/2022
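Also: spheroids exposed to compounds for 7 days.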

| SMILES | viability, T/C (compound 0.0316 µM) | viability, T/C (compound 0.1 µM) | viability, T/C (compound 0.316 µM) | viability, T/C (compound 1 µM) | viability, T/C (compound 3.16 µM) | viability, T/C (compound 10 µM) | IC50 (curve of compound) | viability, T/C (compound 0.00316 µM) | viability, T/C (compound 0.01 µM) | other results |
| --- | --- | --- | --- | --- | --- | --- | --- | --- | --- | --- |
| C#Cc1c(F)ccc2cc(O)cc(-c3ncc4c(N5CC6CCC(C5)N6)nc(OCC56CCCN5CC(F)C6)nc4c3F)c12 (stereo not given) | 102% and 104% (2×) | 87% and 90.2% and 98.9% | 99.2% and 109% and 98.2% | 102% (2×) and 112% | 100% and 94.5% and 103% | 93.4% and 85.1% and 88.1% | > 10000 nM | – | – | – |
| C=C(F)C(=O)N1CCN(c2nc(OCC3CCCN3C)nc3c2CCN(c2cccc4cccc(Cl)c24)C3)CC1CC#N (stereo not given) | 95.8% and 100% | 100% and 95.2% | 98.3% and 103% | 99.6% and 123% | 89.5% and 80.2% | 0.48% and 3.4% | 5270 nM and 4970 nM | – | – | – |
| C=CC(=O)N1CCN(c2nc(=O)n(-c3c(C)ccnc3C(C)C)c3nc(-c4c(O)cccc4F)c(F)cc23)C(C)C1 (stereo not given) | 93.6% and 91.4% | 101% and 93.4% | 97.6% and 109% | 108% and 112% | 96.7% and 107% | 78% and 88.9% | > 10000 nM | – | – | – |
| CCN1C(C(=O)NC23CCC(C(=O)O)(CC2)CC3)C(c2cccc(Cl)c2F)C2(C(=O)Nc3cc(Cl)ccc32)C12CCCCC2 (stereo not given) | – | – | – | – | – | – | > 3000 nM | – | – | viability, T/C (compound 0.00949 µM): 103% [middle of 8 runs]; viability, T/C (compound 0.03 µM): 101% [middle of 8 runs]; viability, T/C (compound 0.0949 µM): 103% [middle of 8 runs]; viability, T/C (compound 0.3 µM): 105% [middle of 8 runs]; viability, T/C (compound 0.949 µM): 102% [middle of 8 runs]; viability, T/C (compound 3 µM): 95.7% [middle of 8 runs]; IC50 [1]: > 3000 nM |
| CCN1CCN(Cc2ccc(Nc3ncc(F)c(-c4cc(F)c5nc(C)n(C(C)C)c5c4)n3)nc2)CC1 | 96.3% and 101% and 86.1% | 97.9% and 93.3% and 105% | 96.8% and 101% and 92% | 79.4% and 77.1% and 87.2% | – | – | > 1000 nM | 99.1% and 89.3% and 99.2% | 103% and 87.3% and 82% | – |
| CNC(C)C(=O)NC1CN(S(=O)(=O)c2cccc(S(=O)(=O)N3CCC4CCC(C(=O)NC(c5ccccc5)c5ccccc5)N4C(=O)C(NC(=O)C(C)NC)C3)c2)CCC2CCC(C(=O)NC(c3ccccc3)c3ccccc3)N2C1=O (stereo not given) | 89.6% [middle of 6 runs] | 87.5% [middle of 6 runs] | – | 77.4% [middle of 6 runs] | – | – | > 1000 nM | – | – | – |
| COc1c(OCCCN2CCOCC2)ccc2c3n(c(=NC(=O)c4cnc(N)nc4)nc12)CCN3 | 71.1% and 82.2% | 68% and 61.7% | 44.1% and 40% | 31.9% and 28.1% | – | – | 254 nM and 188 nM | 98.3% and 95.9% | 88% and 87.8% | – |
| Cc1c(S(C)(=O)=O)c(-c2cc(F)cc(N3CCN(c4ccc(NS(=O)(=O)c5ccc(NC(CCN6CCC(C(=O)OCCCP(=O)(O)O)CC6)CSc6ccccc6)c(S(=O)(=O)C(F)(F)F)c5)cc4)CC3)c2)c(-c2ccc(Cl)cc2)n1C(C)C (stereo not given) | 101% [middle of 7 runs] | 93.1% [middle of 7 runs] | 91.5% [middle of 7 runs] | 77.7% [middle of 7 runs] | 63% [middle of 7 runs] | 55.6% [middle of 7 runs] | – | – | – | IC50 [1]: > 10000 nM |
| Cc1nc(N2CCC3(CC2)COC(C)C3N)c(CO)nc1Sc1ccnc(N)c1Cl (stereo not given) | – | – | – | – | – | – | > 3000 nM | – | – | viability, T/C (compound 0.00949 µM): 92.9% and 104% and 105%; viability, T/C (compound 0.03 µM): 105% and 93.2% and 112%; viability, T/C (compound 0.0949 µM): 95.7% and 91.3% and 95.2%; viability, T/C (compound 0.3 µM): 96.7% and 100% and 87%; viability, T/C (compound 0.949 µM): 88.2% and 85.2% and 73.8%; viability, T/C (compound 3 µM): 64.9% and 62.4% and 62.7% |
| Cn1ncnc1[C@H]1c2n[nH]c(=O)c3cc(F)cc(c23)N[C@@H]1c1ccc(F)cc1 | 105% and 96.6% and 94.3% | 79.6% and 84.5% and 82.6% | – | – | – | – | > 100 nM | 97.5% and 93.9% and 87.1% | 87.1% and 98% and 103% | viability, T/C (compound 0.000316 µM): 95.5% and 111% and 105%; viability, T/C (compound 0.001 µM): 101% and 97% and 98.5% |
| NC(=O)C(=Cn1cnc(-c2cc(C(F)(F)F)cc(C(F)(F)F)c2)n1)c1cncnc1 | – | – | – | – | – | – | – | – | – | viability, T/C (compound 0.000949 µM): 104% and 98.5% and 48.5%; viability, T/C (compound 0.003 µM): 91.6% and 94.9% and 49.6%; viability, T/C (compound 0.00949 µM): 87.5% and 83.8% and 46.9%; viability, T/C (compound 0.03 µM): 58.5% and 51.1% and 32.2%; viability, T/C (compound 0.0949 µM): 18.1% and 18.5% and 16.5%; viability, T/C (compound 0.3 µM): 11.2% and 10.3% and 10% |
| NC1CCC(NC2CC2c2ccccc2)CC1 (stereo not given) | 99.2% and 85.7% | 88.1% and 89.4% | – | – | – | – | > 100 nM | 90% and 91.5% | 95.4% and 94.3% | viability, T/C (compound 0.000316 µM): 92.5% and 90.7%; viability, T/C (compound 0.001 µM): 87% and 79.9% |
| O=C(c1cc(Cc2n[nH]c(=O)c3ccccc23)ccc1F)N1CCN(C(=O)C2CC2)CC1 | 102% and 103% and 85.9% | 101% (2×) and 93.1% | 94.2% and 92.7% and 111% | 90.9% and 103% and 93.6% | 89.6% and 92.4% and 71.7% | 59.9% and 61.9% and 50.4% | > 10000 nM | – | – | – |
| O=C(c1ccc(F)c(F)c1Nc1ccc(I)cc1F)N1CC(O)([C@@H]2CCCCN2)C1 | 98.4% and 88.8% and 92.9% | 75.9% and 77.3% and 84.2% | 50.1% and 56% and 54.9% | 34.9% and 49.8% and 34% | – | – | 314 nM and 867 nM and 412 nM | 107% and 99.7% and 89.7% | 95.2% and 94.7% and 92% | – |
